Measurements reported in patent publication US8088806B2 (Achillion Pharmaceuticals, Inc., priority 2005, dated 2012).

system: HCV replicon; assay: Replicon based assay of HCV replication inhibition (NPT ELISA); type: cell-based, Hepatitis C virus; conditions: Hepatitis C virus, Huh-7, 72 h, Table III; Huh-7 HCV replicon-containing cells, three days; read-out: Activity
Outline: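 Huh-7 cells carrying a bicistronic HCV replicon (neo, EMCV-IRES-driven NS3–NS5B) treated overnight after seeding with usually 6 concentrations, 10 to 0.03 micromolar, for three days at 37° C without G418. Replication read as NPT level by captured ELISA; matched-DMSO wells and interferon alpha as controls.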

SMILES	EC50 [nM]
CCCCCCCCOc1ccc(Nc2nc(-c3ccc4c(c3)OCO4)cs2)cc1C(F)(F)F [compound 706, 4-(benzo[d][1,3]dioxol-5-yl)-N-(3-(trifluoromethyl)-4-(octyloxy)phenyl)thiazol-2-amine]	< 1000
CCCCCCCCOc1ccc(Nc2nc(-c3ccc4cc(OC)ccc4c3)cs2)cc1C(F)(F)F [compound 707, N-(3-(trifluoromethyl)-4-(octyloxy)phenyl)-4-(2-methoxynaphthalen-6-yl)thiazol-2-amine]	< 1000
CCCCCCCCOc1ccc(Nc2nc(-c3cccc4cccnc34)cs2)cc1C(F)(F)F [compound 708, N-(3-(trifluoromethyl)-4-(octyloxy)phenyl)-4-(quinolin-8-yl)thiazol-2-amine]	< 1000
CCCCCCCCOc1ccc(Nc2nc(-c3ccc(C(F)(F)F)cn3)cs2)cc1C(F)(F)F [compound 709, N-(3-(trifluoromethyl)-4-(octyloxy)phenyl)-4-(5-(trifluoromethyl)pyridin-2-yl)thiazol-2-amine]	< 1000
CCCCCCCCOc1ccc(Nc2nc(-c3ncccc3O)cs2)cc1C(F)(F)F [compound 710, 2-(2-(3-(trifluoromethyl)-4-(octyloxy)phenylamino)thiazol-4-yl)pyridin-3-ol]	< 1000
CCCCCCCCOc1ccc(Nc2nc(-c3cccc(S(N)(=O)=O)c3)cs2)cc1C(F)(F)F [compound 711]	< 1000
CCCCCCCCOc1ccc(Nc2nc(-c3ccc(S(N)(=O)=O)cc3)cs2)cc1C(F)(F)F [compound 712]	< 1000
CCCCCCCCOc1ccc(Nc2nc(-c3cnc(OC)nc3OC)cs2)cc1C(F)(F)F [compound 713, N-(3-(trifluoromethyl)-4-(octyloxy)phenyl)-4-(2,4-dimethoxypyrimidin-5-yl)thiazol-2-amine]	< 1000
CCCCCCCCOc1ccc(Nc2nc(-c3ccsc3)cs2)cc1C(F)(F)F [compound 714, N-(3-(trifluoromethyl)-4-(octyloxy)phenyl)-4-(thiophen-3-yl)thiazol-2-amine]	< 1000
CCCCCCCCOc1ccc(Nc2nc(-c3cccc(C(F)(F)F)c3)cs2)cc1C(F)(F)F [compound 715, N-(3-(trifluoromethyl)-4-(octyloxy)phenyl)-4-(3-(tnfluoromethyl)phenyl)thiazol-2-amine]	< 1000
CCCCCCCc1nc2cc(Nc3nc(-c4cccnc4)cs3)ccc2o1 [compound 716, 2-heptyl-N-(4-(pyridin-3-yl)thiazol-2-yl)benzo[d]oxazol-5-amine]	< 1000
CCCCCCCc1nc2cc(Nc3nc(-c4cnc(OC)nc4)cs3)ccc2o1 [compound 717, 2-heptyl-N-(4-(2-methoxypyrimidin-5-yl)thiazol-2-yl)benzo[d]oxazol-5-amine]	< 1000
O=C1OCc2cc(-c3csc(Nc4ccc(OCC5CCCCC5)c(F)c4)n3)ccc21 [compound 718, 5-(2-(4-(cyclohexylmethoxy)-3-fluorophenylamino)thiazol-4-yl)isobenzofuran-1(3H)-one]	1000 to 10000
Fc1cc(Nc2nc(-c3ccc(-n4ccnc4)cc3)cs2)ccc1OCC1CCCCC1 [compound 719, 4-(4-(1H-imidazol-1-yl)phenyl)-N-(4-(cyclohexylmethoxy)-3-fluorophenyl)thiazol-2-amine]	< 1000

same assay, conditions: Hepatitis C virus, replicon based assay of HCV replication inhibition; Table IV; read-out: Activity

SMILES	EC50 [nM]
COc1ncc(-c2csc(Nc3ccc(OCC4CCCCC4)c(F)c3)n2)cn1 [compound 720, N-(4-(cyclohexylmethoxy)-3-fluorophenyl)-4-(2-methoxypyrimidin-5-yl)thiazol-2-amine]	< 1000
Fc1cc(Nc2nc(-c3cccc4nsnc34)cs2)ccc1OCC1CCCCC1 [compound 722, 4-(benzo[c][1,2,5]thiadiazol-4-yl)-N-(4-(cyclohexylmethoxy)-3-fluorophenyl)thiazol-2-amine]	1000 to 10000
O=c1[nH]c2ccc(-c3csc(Nc4ccc(OCC5CCCCC5)c(F)c4)n3)cc2c(=O)o1 [compound 723, 6-(2-(4-(cyclohexylmethoxy)-3-fluorophenylamino)thiazol-4-yl)-1H-benzo[d][1,3]oxazine-2,4-dione]	1000 to 10000
OCCc1ccc(-c2csc(Nc3ccc(OCC4CCCCC4)c(F)c3)n2)cc1 [compound 724, 2-(4-(2-(4-(cyclohexylmethoxy)-3-fluorophenylamino)thiazol-4-yl)phenyl)ethanol]	1000 to 10000
NC(=O)c1sccc1-c1csc(Nc2ccc(OCC3CCCCC3)c(F)c2)n1 [compound 725, 3-(2-(4-(cyclohexylmethoxy)-3-fluorophenylamino)thiazol-4-yl)thiophene-2-carboxamide]	< 1000
Fc1cc(Nc2nc(-c3ccc(-c4csnn4)cc3)cs2)ccc1OCC1CCCCC1 [compound 726, 4-(4-(1,2,3-thiadiazol-4-yl)phenyl)-N-(4-(cyclohexylmethoxy)-3-fluorophenyl)thiazol-2-amine]	1000 to 10000
O=C1CSc2cc(-c3csc(Nc4ccc(OCC5CCCCC5)c(F)c4)n3)ccc2N1 [compound 727, 7-(2-(4-(cyclohexylmethoxy)-3-fluorophenylamino)thiazol-4-yl)-2H-benzo[b][1,4]thiazin-3(4H)-one]	1000 to 10000
N#Cc1cncc(-c2csc(Nc3ccc(OCC4CCCCC4)c(F)c3)n2)c1 [compound 728, 5-(2-(4-(cyclohexylmethoxy)-3-fluorophenylamino)thiazol-4-yl)pyridine-3-carbonitrile]	< 1000
N#Cc1sccc1-c1csc(Nc2ccc(OCC3CCCCC3)c(F)c2)n1 [compound 729, 3-(2-(4-(cyclohexylmethoxy)-3-fluorophenylamino)thiazol-4-yl)thiophene-2-carbonitrile]	< 1000
CCCCCCCCOc1ccc(Nc2nc(-c3cccc(C(=O)OCC)n3)cs2)cc1C(F)(F)F [compound 730, ethyl 6-(2-(3-(trifluoromethyl)-4-(octyloxy)phenylamino)thiazol-4-yl)pyridine-2-carboxylate]	< 1000
CCCCCCCCOc1ccc(Nc2nc(-c3nc(C(=O)OCC)cs3)cs2)cc1C(F)(F)F [compound 731, ethyl 2-(2-(3-(trifluoromethyl)-4-(octyloxy)phenylamino)thiazol-4-yl)thiazole-4-carboxylate]	< 1000
CCCCCCCCOc1ccc(Nc2nc(-c3ncc(C(=O)OCC)s3)cs2)cc1C(F)(F)F [compound 732, ethyl 2-(2-(3-(trifluoromethyl)-4-(octyloxy)phenylamino)thiazol-4-yl)thiazole-5-carboxylate]	< 1000
CCCCCCCCOc1ccc(Nc2nc(-c3ccc(O)nc3)cs2)cc1C(F)(F)F [compound 733, 5-(2-(3-(trifluoromethyl)-4-(octyloxy)phenylamino)thiazol-4-yl)pyridin-2-ol]	< 1000
CCCCCCCCOc1ccc(Nc2nc(-c3ccc(OC)nc3)cs2)cc1C(F)(F)F [compound 734, N-(3-(trifluoromethyl)-4-(octyloxy)phenyl)-4-(6-methoxypyridin-3-yl)thiazol-2-amine]	< 1000
CN(C)c1ccc(-c2csc(Nc3ccc(OC4CCCC4)c(C(F)(F)F)c3)n2)cn1 [compound 735, 5-(2-(4-(cyclopentyloxy)-3-(trifluoromethyl)phenylamino)thiazol-4-yl)-N,N-dimethylpyridin-2-amine]	1000 to 10000
c1ccc(-c2nc3cc(Nc4nc(-c5cccnc5)cs4)ccc3o2)cc1 [compound 736, 2-phenyl-N-(4-(pyridin-3-yl)thiazol-2-yl)benzo[d]oxazol-5-amine]	< 1000
c1cncc(-c2csc(Nc3ccc4c(c3)OCCO4)n2)c1 [compound 737, N-(2,3-dihydrobenzo[b][1,4]dioxin-6-yl)-4-(pyridin-3-yl)thiazol-2-amine]	> 10000
Clc1ccc(-c2cc(Nc3nc(-c4cccnc4)cs3)[nH]n2)cc1 [compound 738, 3-(4-chlorophenyl)-N-(4-(pyridin-3-yl)thiazol-2-yl)-1H-pyrazol-5-amine]	> 10000
Brc1ccc(Nc2nc(-c3cccnc3)cs2)nc1 [compound 739, 5-bromo-N-(4-(pyridin-3-yl)thiazol-2-yl)pyridin-2-amine]	> 10000
c1cncc(-c2csc(Nc3ccc4c(c3)OCO4)n2)c1 [compound 740, N-(benzo[d][1,3]dioxol-6-yl)-4-(pyridin-3-yl)thiazol-2-amine]	> 10000
COc1ccc(Nc2nc(-c3cccnc3)cs2)cc1OC1CCCC1 [compound 741, N-(3-(cyclopentyloxy)-4-methoxyphenyl)-4-(pyridin-3-yl)thiazol-2-amine]	1000 to 10000
Clc1cc(Nc2nc(-c3cccnc3)cs2)ccc1N1CCOCC1 [compound 742, N-(3-chloro-4-morpholinophenyl)-4-(pyridin-3-yl)thiazol-2-amine]	1000 to 10000
CN1Cc2c(Nc3nc(-c4cccnc4)cs3)cccc2C(c2ccccc2)C1 (stereo not drawn) [compound 743, 1,2,3,4-tetrahydro-2-methyl-4-phenyl-N-(4-(pyridin-3-yl)thiazol-2-yl)isoquinolin-8-amine]	> 10000
COC(=O)c1sc(-c2ccccc2)cc1Nc1nc(-c2cccnc2)cs1 [compound 744, methyl 3-(4-(pyridin-3-yl)thiazol-2-ylamino)-5-phenylthiophene-2-carboxylate]	> 10000
Cc1nc2cc(Nc3nc(-c4cccnc4)cs3)ccc2s1 [compound 745, 2-methy1-N-(4-(pyridin-3-yl)thiazol-2-yl)benzo[d]thiazol-5-amine]	> 10000
c1cncc(-c2csc(Nc3cc(-c4cccs4)n[nH]3)n2)c1 [compound 746, N-(4-(pyridin-3-yl)thiazol-2-yl)-3-(thiophen-2-yl)-1H-pyrazol-5-amine]	> 10000
Cc1cccc2sc(Nc3nc(-c4cccnc4)cs3)nc12 [compound 747, 4-methyl-N-(4-(pyridin-3-yl)thiazol-2-yI)benzo[d]thiazol-2-amine]	> 10000
Cn1nc(-c2ccccc2)cc1Nc1nc(-c2cccnc2)cs1 [compound 748, 1-methyl-3-phenyl-N-(4-(pyridin-3-yl)thiazol-2-yl)-1H-pyrazol-5-amine]	> 10000
